Marks after values point to notes of the source that are not given here.
Experiments:
open-chest rabbit hearts [1] = experiment: Infarct size, 60 min ischemia model (open-chest rabbit, TTC staining); type: in vivo, New Zealand White rabbits; conditions: 60 min ischemia + 3 h reperfusion; for Infarct size: (E)=5 min prior to ischemia, (L)=at reperfusion, AMP given at reperfusion, mean ± S.E.M.
Method: New Zealand White rabbits of either sex weighing 2.0-2.5 kg were anesthetized with pentobarbital (30 mg/kg iv), intubated through a tracheotomy, and ventilated with 100% oxygen via a positive pressure respirator (MD industries, Mobile, Ala.). The ventilation rate and tidal volume were adjusted to maintain arterial blood gases in the physiological range. Body temperature was maintained at 38-39° C. A catheter was inserted into the left carotid artery for monitoring blood pressure. Another catheter was inserted into the right jugular vein for drug infusion. A left thoracotomy was performed in the fourth intercostal space, and the pericardium was opened to expose the heart. A 2-0 silk suture on a curved taper needle was passed through the myocardium around a prominent branch of the left coronary artery. The ends of the suture were passed through a small piece of soft vinyl tubing to form a snare. Ischemia was induced by pulling the snare and then fixing it by clamping the tube with a small hemostat. Ischemia was confirmed by appearance of cyanosis. Reperfusion was achieved by releasing the snare and was confirmed by visible hyperemia on the ventricular surface. After 3 h of reperfusion, the rabbit was given an overdose of pentobarbital and the heart was quickly removed from the chest, mounted on a Langendorff apparatus, and perfused with saline to wash out blood. Then the coronary artery was reoccluded, and 1 ml of 0.25% fluorescent polymer microspheres (2-9 μm diameter, Duke Scientific Corp, Palo Alto, Calif.) were infused into the perfusate to demarcate the risk zone as the area of tissue without fluorescence. The heart was weighed, frozen, and cut into 2.5-mm-thick slices. The slices were incubated in 1% triphenyltetrazolium chloride (TTC) in sodium phosphate buffer at 37° C. for 20 min. The slices were immersed in 10% formalin to enhance the contrast between stained (viable) and unstained (necrotic) tissue and then squeezed between glass plates spaced exactly 2 mm apart. The myocardium at risk was identified by illuminating the slices with ultraviolet light. The infarcted and risk zone areas were traced on a clear acetate sheet and quantified with planimetry by an investigator blinded to the treatment. The areas were converted into volumes by multiplying the areas by slice thickness. Infarct size is expressed as a percentage of the risk zone. Pretreatment with cariporide was so potent that any additional protection would probably be undetectable with a 45-minute ischemic insult. We therefore chose a 60 min period of index ischemia for these studies. […] All data are expressed as means±S.E.M. One-way ANOVA combined with Scheffé's post hoc test was used to test for differences in baseline hemodynamics and infarct size among groups. […]

open-chest rabbit hearts [2] = experiment: Infarct size, 45 min ischemia model (open-chest rabbit, TTC staining); type: in vivo, New Zealand White rabbits; conditions: 45 min ischemia + 3 h reperfusion; for Infarct size: (E)=5 min prior to ischemia, (L)=at reperfusion, (E&L)=from 5 min prior to ischemia for 120 min, mean ± S.E.M.; for Infarct size as a percentage of the risk zone: control 55.8±3.9%
Method: New Zealand White rabbits of either sex weighing 2.0-2.5 kg were anesthetized with pentobarbital (30 mg/kg iv), intubated through a tracheotomy, and ventilated with 100% oxygen via a positive pressure respirator (MD industries, Mobile, Ala.). The ventilation rate and tidal volume were adjusted to maintain arterial blood gases in the physiological range. Body temperature was maintained at 38-39° C. A catheter was inserted into the left carotid artery for monitoring blood pressure. Another catheter was inserted into the right jugular vein for drug infusion. A left thoracotomy was performed in the fourth intercostal space, and the pericardium was opened to expose the heart. A 2-0 silk suture on a curved taper needle was passed through the myocardium around a prominent branch of the left coronary artery. The ends of the suture were passed through a small piece of soft vinyl tubing to form a snare. Ischemia was induced by pulling the snare and then fixing it by clamping the tube with a small hemostat. Ischemia was confirmed by appearance of cyanosis. Reperfusion was achieved by releasing the snare and was confirmed by visible hyperemia on the ventricular surface. After 3 h of reperfusion, the rabbit was given an overdose of pentobarbital and the heart was quickly removed from the chest, mounted on a Langendorff apparatus, and perfused with saline to wash out blood. Then the coronary artery was reoccluded, and 1 ml of 0.25% fluorescent polymer microspheres (2-9 μm diameter, Duke Scientific Corp, Palo Alto, Calif.) were infused into the perfusate to demarcate the risk zone as the area of tissue without fluorescence. The heart was weighed, frozen, and cut into 2.5-mm-thick slices. The slices were incubated in 1% triphenyltetrazolium chloride (TTC) in sodium phosphate buffer at 37° C. for 20 min. The slices were immersed in 10% formalin to enhance the contrast between stained (viable) and unstained (necrotic) tissue and then squeezed between glass plates spaced exactly 2 mm apart. The myocardium at risk was identified by illuminating the slices with ultraviolet light. The infarcted and risk zone areas were traced on a clear acetate sheet and quantified with planimetry by an investigator blinded to the treatment. The areas were converted into volumes by multiplying the areas by slice thickness. Infarct size is expressed as a percentage of the risk zone. Seven groups of rabbits were subjected to 45 min of regional ischemia followed by 3 h of reperfusion (FIG. 1). The PC was induced by a 5 min of regional ischemia followed by a 10 min reperfusion prior to the sustained ischemia. All groups receiving AMP 579 received a bolus injection of 30 μg/kg iv followed by an infusion of 3 μg/kg/min for 70 min. In PC+AMP (L) group, the hearts experienced PC and were treated with AMP 579 at reperfusion for 70 min. AMP 579 alone was given at reperfusion for 70 min in AMP (L) group. The hearts in AMP (E&L) group were treated with AMP 579 starting 5 min before ischemia for 120 min. An intravenous bolus injection of cariporide was given either 5 min prior to ischemia (Cariporide (E)) or 5 min before reperfusion (Cariporide (L)). All data are expressed as means±S.E.M. One-way ANOVA combined with Scheffé's post hoc test was used to test for differences in baseline hemodynamics and infarct size among groups. ANOVA with replication was used to test for changes in hemodynamics during an experiment within each group. A p value of less than 0.05 was considered to be significant.

Structure (SMILES) | Infarct size (open-chest rabbit hearts [1]) | Infarct size as a percentage of the risk zone (open-chest rabbit hearts [1]; AMP 579 alone at reperfusion (30 μg/kg + 3 μg/kg/min, 70 min), not significant vs control 66.0±4.9%) [%] | Infarct size (open-chest rabbit hearts [2]; listed as AMP (E&L)) | Infarct size (open-chest rabbit hearts [2]; listed as AMP (L)) | Infarct size as a percentage of the risk zone (open-chest rabbit hearts [2]; AMP 579 alone, 30 μg/kg iv bolus + 3 μg/kg/min for 70 min starting at reperfusion) [%] | Infarct size as a percentage of the risk zone (open-chest rabbit hearts [1]; cariporide 0.5 mg/kg bolus 5 min prior to ischemia, control 66.0±4.9%) [%] | Infarct size (open-chest rabbit hearts [2]; listed as Cariporide (E)) | Infarct size (open-chest rabbit hearts [2]; listed as Cariporide (L)) [cm^3] | Infarct size as a percentage of the risk zone (open-chest rabbit hearts [2]; cariporide iv bolus 5 min prior to ischemia (pretreatment)) [%] | Infarct size as a percentage of the risk zone (open-chest rabbit hearts [2]; cariporide iv bolus just prior to reperfusion) [%]
CCNC(=O)[C@H]1CC(n2cnc3c(N[C@H](CC)Cc4sccc4Cl)ccnc32)[C@H](O)[C@@H]1O (relative stereo) [AMP 579, [1S-[1α,2β,3β,4α(S*)]]-4-[7-[[3-chloro-2-thienyl)methyl]propyl]amino]-3H-imidazo[4,5-b]pyridin-3-yl]-N-ethyl-2,3-dihydroxycyclopentanecarboxamide] | 0.59 ± 0.09 cm^3 | 45.3±5.4 | 0.26 ± 0.05* cm^3 | 0.37 ± 0.03* cm^3 | 32.1±1.8 | – | – | – | – | –
CC(C)c1ccc(C(=O)N=C(N)N)cc1S(C)(=O)=O [Cariporide, 4-isopropyl-3-methylsulfonylbenzoylguanidine methane sulfonate] | 0.47 ± 0.08* cm^3 | – | – | – | – | 41.5±7.7 | 0.13 ± 0.07* cm^3 | 0.60 ± 0.08 | 8.5±3.7 | 53.4±3.5

Source: patent publication US20040248928A1, “Pharmaceutical composition comprising an adenosine A1/A2 agonist and a sodium hydrogen exchanger inhibitor” (Adventis Pharmaceuticals Inc., priority 2001, published 2004)
